Measured values: patent publication US5861424A, “Composition and method for treating cancer” (priority 1995, dated 1999)
Read-outs that look alike come from different tables or passages of the source. Values belong to the compound of their own block, whether it stands above or below them.

Assays:
[1] = tested on: human colon carcinoma cell line CX-1; assay: Colony formation assay, human colon carcinoma CX-1; type: cell-based; conditions: Table III; for IC50: Homo sapiens, Colon carcinoma cell, read-out: CX-1 (IC50); for IC50 / CX-1 (IC50): 24 h treatment, colony count after 7 to 10 days; for Selectivity (ratio of IC50 for CV-1 and IC50 for CX-1): CV-1/CX-1
Description: (§2) Human colon carcinoma cell line CX-1 or normal monkey kidney epithelial cell line CV-1 was chosen as representatives of cancer cells and normal cells, respectively. […] CX-1 cells (2,000 cells/well) and CV-1 cells (1,000 cells/well) were plated in 24-well plastic culture plates. […] The control received culture media only. Cells were treated with compounds of General Formulas (1) to (6) at 37° C. for 24 hours. After rinsing with fresh culture medium three times, the cells were further incubated at 37° C. for 7 to 10 days. Cell colonies were fixed and stained with 2% crystal violet in 70% ethanol for 10 minutes and rinsed in water. […] The selectivity is defined as the ratio of IC50 for CV-1 and IC50 for CX-1.

[2] = tested on: human colon carcinoma CX-1; assay: Anti-human colon carcinoma CX-1 activity in nude mice, tumor inhibition; type: in vivo, human colon carcinoma in Swiss nu/nu mice; conditions: Mus musculus, ip, 24 h, 20 mg/kg
Excerpt: Human colon carcinoma cell line CX-1 has been chosen by the National Cancer Institute as a mode for cancer drug screening (NCI Protocol 3C2H2). It was established in culture from the surgical explant of the primary colon adenocarcinoma of a person with no previous chemotherapy. The cultured CX-1 cells, upon subcutaneous injection, can grow readily in nude mice as a moderately- to well-differentiated human colon carcinoma. CEA is expressed as expected for differentiated colon carcinoma cells. Abundant keratin, consistent with epithelial origin, is present. Increased uptake and prolonged retention of delocalized lipophilic cations are observed.
Swiss nu/nu mice obtained from Taconic Farm were housed in a pathogen-free environment. Tumors subcutaneously passaged in nude mice were excised under sterile conditions and converted to a single cell suspension using a metal grid with a 0.4 mm mesh. Red blood cells were lysed by incubation with 0.17M ammonium chloride at 4° C. for 20 minutes. Cells were scored for viability with trypan blue. Viable CX-1 cells (2.5 million) made up in 0.1 ml of cell culture medium were injected subcutaneously into each nude mouse. The mice were randomly allocated into a control group (five mice) and a treatment group (five mice per group). The drug treatment was commenced the next day. Doses and schedules were developed empirically and were based mainly on information on LD50 and LD10 obtained from preliminary toxicity studies. The control group received an equivalent volume of hydroxylpropyl-β-cyclodextrin-5% glucose solution.
The pharmaceutical compositions tested comprised solutions in 5% glucose subjected to sonication at concentrations of 1 mg/ml. Those compounds which were not completely dissolved by this procedure were dissolved in hydroxypropyl-β-cyclodextrin using the following method. Hydroxypropyl-β-cyclodextrin (45 g) was mixed with 100 ml of sterilized, double distilled water and stirred for four hours. Each of the compounds to be tested (20 mg) was mixed with 10 ml of hydroxypropyl-β-cyclodextrin solution and sonicated for 60 minutes in the dark. This solution was then diluted in 5% glucose to yield a final compound concentration of 0.5 mg/ml, and further sonicated for 60 minutes in the dark to assure that the compound was completely dissolved.
When the growth of tumors in the control group reached the exponential phase and the size of the tumor was palpable (usually 20 to 30 days after tumor implantation), the experiments were terminated. Tumors in each mouse were excised and weighed using an analytical balance. Total tumor weight in each group from five mice was calculated. Per cent tumor inhibition between the treated group and the control group was then calculated for each group.

[3] = tested on: normal monkey kidney epithelial cell line CV-1; assay: Colony formation assay, normal monkey kidney epithelial cells CV-1; conditions: for IC50: Primates, Epithelial cell;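 as to all read-outs here: colonies visualized by crystal violet staining, incubation at 37 °C, IC50 relative to untreated wells given culture medium alone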
Description: as §2

[4] = tested on: human bladder carcinoma EJ cell line; assay: Colony formation assay, human bladder carcinoma EJ; type: cell-based; conditions: Table IV; for IC50: Homo sapiens, EJ, 24 h, read-out: EJ (IC50); for Selectivity (CV-1 IC50 / EJ IC50): CV-1/EJ
Excerpt: (§1) The control received culture media only.

[5] = tested on: human melanoma LOX cell line; assay: Colony formation assay, human melanoma LOX; type: cell-based; conditions: Table V; for IC50: Homo sapiens, LOX, 24 h, read-out: LOX (IC50); for Selectivity (CV-1 IC50 / LOX IC50): CV-1/LOX
Excerpt: as §1

[6] = tested on: human pancreatic carcinoma CRL 1420 cell line; assay: Colony formation assay, human pancreatic carcinoma CRL 1420; type: cell-based; conditions: Table VII; for IC50: Homo sapiens, 24 h; for IC50 / CRL-1420 (IC50): 24 h treatment; for Selectivity (CV-1 IC50 / CRL-1420 IC50): CV-1/CRL-1420
Excerpt: as §1
The Selectivity values, CRL 1420 values and CV-1 values for compounds of the General Formulas (1) to (6) used in the present invention are shown in Table VII below.

human melanoma LOX = assay: Survival of nude mice implanted with human melanoma LOX; type: in vivo, human melanoma in male athymic Swiss nu/nu mouse; conditions: Mus musculus, ip, 24 h, read-out: T/C (survival)
Description: LOX, a human melanoma cell line, grown subcutaneously in nude mice was excised, trypsinized to yield a single cell suspension using a metal grid with a […]. Red blood cells were lysed by incubation with 0.17 molar ammonium chloride at 4° C. for 20 minutes. Five million viable trypan blue negative cells made up in 0.1 ml of Dulbecco modified Eagles' medium (DME) were injected into the peritoneal cavity of a male athymic Swiss nu/nu mouse. The control group and each treatment group consisted of 5 to 10 mice. Treatment was commenced the following day by intraperitoneal injection.
Ten control mice received 0.25 ml of 2% dextrose on those days the treated groups were injected with the compounds of this invention. The compounds of the General Formulas. (1) to (6) used in this invention which were tested are listed in Table VIII below and the results obtained are shown in Table VIII and FIG. 1-6 of the accompanying drawings. T/C is the ratio, expressed as a percentage of the mean survival age of the treated group to the mean survival age of the untreated control group.

[7] = tested on: human breast carcinoma MCF-7 cell line; assay: Colony formation assay, human breast carcinoma MCF-7; type: cell-based; conditions: Table VI
Excerpt: as §1
The Selectivity values, MCF-7 values and CV-1 values for compounds of the General Formulas (1) to (6) used in the present invention are shown in Table VI below.

[8] = i.p. on day 1, 4, 7, 11, 15, 18
[9] = read-out: CV-1 (IC50), Table III, 24 h treatment, colony count after 7 to 10 days
[10] = read-out: CV-1 (IC50), Table VII
[11] = i.p. on day 1, 7**, 9** (**10 mg/kg)

IC50 [1]: 0.02 µg/mL
Selectivity (ratio of IC50 for CV-1 and IC50 for CX-1) [1]: 1000
SMILES: CCn1c(=Cc2sc3c4ccccc4ccc3[n+]2C)sc(=CC=C2Sc3ccc4ccccc4c3N2C)c1=O [Compound 44]
inhibition in vivo at 20 mg/kg [2, 8]: 54.8%
IC50 [3, 9]: 20 µg/mL

IC50 [1]: 0.005 µg/mL
Selectivity (ratio of IC50 for CV-1 and IC50 for CX-1) [1]: 4000
SMILES: CN1C(=CC=c2sc(=Cc3sc4c5ccccc5ccc4[n+]3C)n(C)c2=O)Sc2ccc3ccccc3c21 [Compound 48]
inhibition in vivo at 20 mg/kg [2, 8]: 72.4%
IC50 [3, 9]: 20 µg/mL

SMILES: CCN1C(=CC=c2sc(=Cc3sc4c5ccccc5ccc4[n+]3CC)n(CC)c2=O)Sc2ccc3ccccc3c21 [Compound 51]
CX-1 (IC50) [1]: 0.03 µg/mL
Selectivity (ratio of IC50 for CV-1 and IC50 for CX-1) [1]: 333
IC50 ([4]; 24 h treatment): 0.04 µg/mL
IC50 ([5]; 24 h treatment): 0.09 µg/mL
Selectivity (CV-1 IC50 / LOX IC50) [5]: 222
IC50 [6]: 0.07 µg/mL
Selectivity (CV-1 IC50 / CRL-1420 IC50) [6]: 286
response vs control in vivo at 20 mg/kg (human melanoma LOX; i.p. on day 1, 2, 3, 6, 9, 13): 174%

SMILES: CCN1C(=CC=c2sc(=Cc3sc4c5ccccc5ccc4[n+]3C)n(CC)c2=O)Sc2ccc3ccccc3c21 [Compound 52]
CX-1 (IC50) [1]: 0.03 µg/mL
Selectivity (ratio of IC50 for CV-1 and IC50 for CX-1) [1]: > 667
EJ (IC50) ([4]; 24 h treatment): 0.05 µg/mL
Selectivity (CV-1 IC50 / EJ IC50) [4]: > 400
LOX (IC50) ([5]; 24 h treatment): 0.08 µg/mL
Selectivity (CV-1 IC50 / LOX IC50) [5]: > 250
MCF-7 (IC50) ([7]; 24 h treatment): 0.03 µg/mL
Selectivity (CV-1 IC50 / MCF-7 IC50) ([7]; CV-1/MCF-7): > 666
CRL-1420 (IC50) [6]: 0.06 µg/mL
Selectivity (CV-1 IC50 / CRL-1420 IC50) [6]: > 333
response vs control in vivo at 10 mg/kg (human melanoma LOX; 10 mg/kg, i.p. on day 1, 2, 3, 6, 9): 168%
CV-1 (IC50) ([3]; Table III, 24 h treatment, colony count after 7 to 10 days): > 20 µg/mL
CV-1 (IC50) ([3]; Table IV): > 20 µg/mL
CV-1 (IC50) ([3]; Table V): > 20 µg/mL
CV-1 (IC50) ([3]; Table VI): > 20 µg/mL
CV-1 (IC50) ([3]; Table VII): > 20 µg/mL

SMILES: CCN1C(=CC=c2sc(=Cc3sc4c5ccccc5ccc4[n+]3CCO)n(CC)c2=O)Sc2ccc3ccccc3c21 [Compound 53]
IC50 [1]: 0.05 µg/mL
Selectivity (ratio of IC50 for CV-1 and IC50 for CX-1) [1]: 400
IC50 [6]: 0.18 µg/mL
Selectivity (CV-1 IC50 / CRL-1420 IC50) [6]: 111
response vs control in vivo at 20 mg/kg (human melanoma LOX; i.p. on day 1, 3, 6, 9, 13, 16): 222%
IC50 [3, 9]: 20 µg/mL
IC50 [3, 10]: 20 µg/mL

SMILES: CCn1c(=Cc2sc3c4ccccc4ccc3[n+]2CC)sc(=CC=C2Sc3ccc4ccccc4c3N2C)c1=O [Compound 55]
inhibition in vivo at 20 mg/kg [2, 8]: 55.3%

SMILES: CCn1c(=Cc2sc3c4ccccc4ccc3[n+]2CC)sc(=CC=C2Sc3ccc4ccccc4c3N2C)c1=O [Compound 56]
CX-1 (IC50) [1]: 0.1 µg/mL
Selectivity (ratio of IC50 for CV-1 and IC50 for CX-1) [1]: 200
IC50 ([4]; 24 h treatment): 0.09 µg/mL
Selectivity (CV-1 IC50 / EJ IC50) [4]: 222
CRL-1420 (IC50) [6]: < 0.046 µg/mL
Selectivity (CV-1 IC50 / CRL-1420 IC50) [6]: > 435
inhibition in vivo at 20 mg/kg ([2]; i.p. on day 1, 5, 8, 11): 82.6%
IC50 ([3]; read-out: CV-1 (IC50), Table IV): 20 µg/mL

SMILES: CCN1C(C)=CSC1=CC=c1sc(=Cc2sc3ccccc3[n+]2CC)n(CC)c1=O [Compound 96]
CX-1 (IC50) [1]: 0.03 µg/mL
Selectivity (ratio of IC50 for CV-1 and IC50 for CX-1) [1]: 667
IC50 ([5]; 24 h treatment): 0.09 µg/mL
Selectivity (CV-1 IC50 / LOX IC50) [5]: 222
response vs control in vivo at 2 mg/kg (human melanoma LOX; 2 mg/kg, i.p. on day 1, 2, 3*, 6*, 9*, 13*, 16* (*4 mg/kg)): 253%
IC50 ([3]; read-out: CV-1 (IC50), Table V): 20 µg/mL

SMILES: CCN1CCSC1=CC=c1sc(=Cc2cc[n+](CC)c3ccccc23)n(CC)c1=O [Compound 146]
inhibition in vivo at 20 mg/kg [2, 11]: 59.3%

SMILES: C=CCn1c(=Cc2cc[n+](CC)c3ccccc23)sc(=CC=C2C=Cc3ccccc3N2CC)c1=O [Compound 249]
IC50 [1]: 0.05 µg/mL
Selectivity (ratio of IC50 for CV-1 and IC50 for CX-1) [1]: 100
IC50 [6]: 0.045 µg/mL
Selectivity (CV-1 IC50 / CRL-1420 IC50) [6]: 111
inhibition in vivo at 20 mg/kg ([2]; i.p. on day 1, 5, 7, 9): 41.1%
IC50 [3, 9]: 5 µg/mL
IC50 [3, 10]: 5 µg/mL

SMILES: C=CCn1c(=Cc2cc[n+](CC)c3ccccc23)sc(=CC=C2C=CN(CC)c3ccccc32)c1=O [Compound 304]
inhibition in vivo at 20 mg/kg [2, 11]: 65.9%
